Experimental data from PubChem BioAssay (NCI).
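Growth conditions: 96-well plates. Treatment: test compound, 48 hours, 5 concentrations. Analysis: linear interpolation between bracketing concentrations; unreached endpoints set to highest concentration. The concentration for 50% growth inhibition is given as GI50. At the TGI there is no net growth.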

Key:
Test in all cases: inhibition of tumour cell growth, NCI panel, 48 h
HT29 colon = tested on: HT29 colon
NCI-H522 lung = tested on: NCI-H522 lung
SK-MEL-28 melanoma = tested on: SK-MEL-28 melanoma
OVCAR-8 ovarian = tested on: OVCAR-8 ovarian
KM12 colon = tested on: KM12 colon
RPMI-8226 leukemia = tested on: RPMI-8226 leukemia
MDA-MB-231 breast = tested on: MDA-MB-231 breast
HCC-2998 colon = tested on: HCC-2998 colon
NCI/ADR-RES ovarian = tested on: NCI/ADR-RES ovarian
HOP-92 NSCLC = tested on: HOP-92 NSCLC
SN12C renal = tested on: SN12C renal
HS 578T breast = tested on: HS 578T breast
SNB-75 CNS = tested on: SNB-75 CNS
ACHN renal = tested on: ACHN renal
A549 NSCLC = tested on: A549 NSCLC
UACC-62 melanoma = tested on: UACC-62 melanoma
OVCAR-4 ovarian = tested on: OVCAR-4 ovarian
MCF7 breast = tested on: MCF7 breast
SW-620 colon = tested on: SW-620 colon
K-562 leukemia = tested on: K-562 leukemia
NCI-H460 lung = tested on: NCI-H460 lung
EKVX NSCLC = tested on: EKVX NSCLC
HOP-62 NSCLC = tested on: HOP-62 NSCLC
OVCAR-5 ovarian = tested on: OVCAR-5 ovarian
MDA-MB-435 = tested on: MDA-MB-435
SK-MEL-2 melanoma = tested on: SK-MEL-2 melanoma
SK-OV-3 ovarian = tested on: SK-OV-3 ovarian
SF-539 CNS = tested on: SF-539 CNS
A498 renal = tested on: A498 renal
COLO 205 colon = tested on: COLO 205 colon
HCT-15 colon = tested on: HCT-15 colon
BT-549 breast = tested on: BT-549 breast
T-47D breast = tested on: T-47D breast
U251 CNS = tested on: U251 CNS
CCRF-CEM leukemia = tested on: CCRF-CEM leukemia
M14 melanoma = tested on: M14 melanoma
RXF 393 renal = tested on: RXF 393 renal
LOX IMVI melanoma = tested on: LOX IMVI melanoma
DU-145 prostate = tested on: DU-145 prostate
SNB-19 CNS = tested on: SNB-19 CNS
IGROV1 ovarian = tested on: IGROV1 ovarian
HL-60(TB) leukemia = tested on: HL-60(TB) leukemia
SF-295 CNS = tested on: SF-295 CNS
MALME-3M melanoma = tested on: MALME-3M melanoma
CAKI-1 renal = tested on: CAKI-1 renal
UACC-257 melanoma = tested on: UACC-257 melanoma
PC-3 prostate = tested on: PC-3 prostate
OVCAR-3 ovarian = tested on: OVCAR-3 ovarian
NCI-H23 lung = tested on: NCI-H23 lung
MOLT-4 leukemia = tested on: MOLT-4 leukemia
TK-10 renal = tested on: TK-10 renal
UO-31 renal = tested on: UO-31 renal
786-0 renal = tested on: 786-0 renal
SK-MEL-5 melanoma = tested on: SK-MEL-5 melanoma

Compound: O=C1/C(=C/c2ccccc2)CN(C(=O)CCN2CCC(=NO)CC2)C/C1=C\c1ccccc1
- GI50 (HT29 colon): 1210 nM
- TGI (HT29 colon): 3610 nM
- GI50 (NCI-H522 lung): 1600 nM
- TGI (NCI-H522 lung): 3360 nM
- GI50 (SK-MEL-28 melanoma): 2190 nM
- TGI (SK-MEL-28 melanoma): 5290 nM
- GI50 (OVCAR-8 ovarian): 1310 nM
- TGI (OVCAR-8 ovarian): 3290 nM
- GI50 (KM12 colon): 663 nM
- TGI (KM12 colon): 2230 nM
- GI50 (RPMI-8226 leukemia): 320 nM
- TGI (RPMI-8226 leukemia): 1230 nM
- GI50 (MDA-MB-231 breast): 1830 nM
- TGI (MDA-MB-231 breast): 3470 nM
- GI50 (HCC-2998 colon): 1730 nM
- TGI (HCC-2998 colon): 3320 nM
- GI50 (NCI/ADR-RES ovarian): 2490 nM
- TGI (NCI/ADR-RES ovarian): 8680 nM
- GI50 (HOP-92 NSCLC): 2030 nM
- TGI (HOP-92 NSCLC): 6400 nM
- GI50 (SN12C renal): 1860 nM
- TGI (SN12C renal): 4030 nM
- GI50 (HS 578T breast): 3090 nM
- TGI (HS 578T breast): 14600 nM
- GI50 (SNB-75 CNS): 2850 nM
- TGI (SNB-75 CNS): 11500 nM
- GI50 (ACHN renal): 1850 nM
- TGI (ACHN renal): 3910 nM
- GI50 (A549 NSCLC): 3050 nM
- GI50 (UACC-62 melanoma): 1700 nM
- TGI (UACC-62 melanoma): 3770 nM
- GI50 (OVCAR-4 ovarian): 2150 nM
- TGI (OVCAR-4 ovarian): 4690 nM
- GI50 (MCF7 breast): 355 nM
- TGI (MCF7 breast): 1980 nM
- GI50 (SW-620 colon): 322 nM
- TGI (SW-620 colon): 1300 nM
- GI50 (K-562 leukemia): 396 nM
- TGI (K-562 leukemia): > 100000 nM
- GI50 (NCI-H460 lung): 2430 nM
- TGI (NCI-H460 lung): 5830 nM
- GI50 (EKVX NSCLC): 2810 nM
- TGI (EKVX NSCLC): 9010 nM
- GI50 (HOP-62 NSCLC): 1790 nM
- TGI (HOP-62 NSCLC): 3640 nM
- GI50 (OVCAR-5 ovarian): 1800 nM
- TGI (OVCAR-5 ovarian): 3580 nM
- GI50 (MDA-MB-435): 1420 nM
- TGI (MDA-MB-435): 3190 nM
- GI50 (SK-MEL-2 melanoma): 4560 nM
- TGI (SK-MEL-2 melanoma): 16200 nM
- GI50 (SK-OV-3 ovarian): 2510 nM
- TGI (SK-OV-3 ovarian): 7090 nM
- GI50 (SF-539 CNS): 1910 nM
- TGI (SF-539 CNS): 3850 nM
- GI50 (A498 renal): 1670 nM
- TGI (A498 renal): 3900 nM
- GI50 (COLO 205 colon): 1680 nM
- TGI (COLO 205 colon): 3290 nM
- GI50 (HCT-15 colon): 1390 nM
- TGI (HCT-15 colon): 3270 nM
- GI50 (BT-549 breast): 1630 nM
- TGI (BT-549 breast): 3270 nM
- GI50 (T-47D breast): 2680 nM
- TGI (T-47D breast): 7910 nM
- GI50 (U251 CNS): 1510 nM
- TGI (U251 CNS): 3490 nM
- GI50 (CCRF-CEM leukemia): 758 nM
- TGI (CCRF-CEM leukemia): 9330 nM
- GI50 (M14 melanoma): 1500 nM
- TGI (M14 melanoma): 3370 nM
- GI50 (RXF 393 renal): 1560 nM
- TGI (RXF 393 renal): 2960 nM
- GI50 (LOX IMVI melanoma): 366 nM
- TGI (LOX IMVI melanoma): 1410 nM
- GI50 (DU-145 prostate): 1800 nM
- TGI (DU-145 prostate): 3270 nM
- GI50 (SNB-19 CNS): 1830 nM
- TGI (SNB-19 CNS): 4060 nM
- GI50 (IGROV1 ovarian): 1690 nM
- TGI (IGROV1 ovarian): 3350 nM
- GI50 (HL-60(TB) leukemia): 2590 nM
- TGI (HL-60(TB) leukemia): 8330 nM
- GI50 (SF-295 CNS): 2080 nM
- TGI (SF-295 CNS): 4640 nM
- GI50 (MALME-3M melanoma): 2010 nM
- TGI (MALME-3M melanoma): 5180 nM
- GI50 (CAKI-1 renal): 1610 nM
- TGI (CAKI-1 renal): 3010 nM
- GI50 (UACC-257 melanoma): 1920 nM
- TGI (UACC-257 melanoma): 4700 nM
- GI50 (PC-3 prostate): 1520 nM
- TGI (PC-3 prostate): 3870 nM
- GI50 (OVCAR-3 ovarian): 1660 nM
- TGI (OVCAR-3 ovarian): 3150 nM
- GI50 (NCI-H23 lung): 1890 nM
- TGI (NCI-H23 lung): 4280 nM
- GI50 (MOLT-4 leukemia): 686 nM
- TGI (MOLT-4 leukemia): 11300 nM
- GI50 (TK-10 renal): 2380 nM
- TGI (TK-10 renal): 7790 nM
- GI50 (UO-31 renal): 1400 nM
- TGI (UO-31 renal): 2710 nM
- GI50 (786-0 renal): 1980 nM
- TGI (786-0 renal): 4510 nM
- GI50 (SK-MEL-5 melanoma): 1640 nM
- TGI (SK-MEL-5 melanoma): 2990 nM
